Assay results from patent US20250114294A1, “COMPOSITIONS SUITABLE FOR USE IN SKIN CARE” (Johnson & Johnson Consumer Inc., priority 2023, published 2025).

Legend:
Assay type in all cases: cell-based, human
interleukin-8 (IL8) = test: IL8 gene expression (TaqMan qPCR) in EpiDerm Full Thickness skin equivalents; conditions: EFT-400 skin equivalents, 4 μL topical, 24 hours, normalized to POLR2A, vs PgETOH vehicle; irritation marker
Method: (§1) EpiDerm Full Thickness Skin 3D Equivalents (EFT-400) were purchased from MatTek Corporation (Ashland, MA 01721; lot number 34272, kit N & kit P). Upon receipt the skin equivalents were transferred in new 6-well plates (MatTek Corporation, Ashland, MA 01721) with 2.5 mL of EFT-400 medium (MatTek Corportion, Ashland, MA) and equilibrated overnight.
(§2) The following day, skin equivalents were treated topically with 4 μL of the following treatments: Vehicle, 0.04% Retinol, 0.04% Retinol +0.05% Myrrh resin extract, or 0.04% Retinol +0.1% Myrrh resin extract.
(§3) Propylene glycol/ethanol (PgETOH) (3:7) (w/w) was used as a vehicle. Retinol (BASF 50C) was diluted in PgETOH to a stock concentration of 0.4%. 0.4% Retinol was further diluted to make 0.08% Retinol. Since Retinol is 50% active, the percent active Retinol in the final treatment solution was 0.04% Retinol. Myrrh resin extract (Firmenich) was weighed out to 16.1 mg and diluted in 1.6 mL of PgETOH for a 1% Myrrh resin extract stock solution.
(§4) To make the 0.04% Retinol+0.1% Myrrh resin extract treatment solution combine 100 μL of the 0.4% retinol stock solution, 50 μL of the 1% Myrrh resin extract stock solution, and 350 μL of PgETOH. […]
(§5) The fold changes were calculated in comparison to the vehicle control and two-tailed two-sample Student t-tests (Microsoft Office Excel 2007; Microsoft, Redmond, WA, USA) were performed. […]

[1] = test system: cellular retinoic acid binding protein 2 (CRABP2); test: CRABP2 gene expression (TaqMan qPCR) in EpiDerm Full Thickness skin equivalents; conditions: EFT-400 skin equivalents, 4 μL topical, 24 hours, normalized to POLR2A, vs PgETOH vehicle
Method: as §1, §2, §3, §4, §5

aquaporin-3 (AQP3) = test: AQP3 gene expression (TaqMan qPCR) in EpiDerm Full Thickness skin equivalents; conditions: EFT-400 skin equivalents, 4 μL topical, 24 hours, normalized to POLR2A, vs PgETOH vehicle
Method: as §1, §2, §3, §4, §5

CC1=C(/C=C/C(C)=C/C=C/C(C)=C/CO)C(C)(C)CCC1 [Sample 2, Retinol] was tested, and the “IL8 Average fold change over untreated” value (interleukin-8 (IL8)) was 1.22, the “CRABP2 Average fold change over untreated” value [1] was 2.22 and the “AQP3 Average fold change over untreated” value (aquaporin-3 (AQP3)) was 1.82.
